The target in the experiment is ROCK2 (Homo sapiens, UniProt O75116). The experiment can be described thus: ROCK kinase inhibition assay, FITC peptide substrate, LABCHIP 3000 readout. The experiment is classed as biochemical. The conditions noted are these: 5 μM ATP, 1.5 μM peptide substrate. The essentials:
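Rho kinase variants started the reaction with compound present (DMSO <2%); after incubation, EDTA stop, and phosphorylated and non-phosphorylated peptide separated by microfluidic electrophoresis. Dose-response format, inhibition calculated at each concentration.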

ROCK2, sequence (O75116 whole entry, species assumed): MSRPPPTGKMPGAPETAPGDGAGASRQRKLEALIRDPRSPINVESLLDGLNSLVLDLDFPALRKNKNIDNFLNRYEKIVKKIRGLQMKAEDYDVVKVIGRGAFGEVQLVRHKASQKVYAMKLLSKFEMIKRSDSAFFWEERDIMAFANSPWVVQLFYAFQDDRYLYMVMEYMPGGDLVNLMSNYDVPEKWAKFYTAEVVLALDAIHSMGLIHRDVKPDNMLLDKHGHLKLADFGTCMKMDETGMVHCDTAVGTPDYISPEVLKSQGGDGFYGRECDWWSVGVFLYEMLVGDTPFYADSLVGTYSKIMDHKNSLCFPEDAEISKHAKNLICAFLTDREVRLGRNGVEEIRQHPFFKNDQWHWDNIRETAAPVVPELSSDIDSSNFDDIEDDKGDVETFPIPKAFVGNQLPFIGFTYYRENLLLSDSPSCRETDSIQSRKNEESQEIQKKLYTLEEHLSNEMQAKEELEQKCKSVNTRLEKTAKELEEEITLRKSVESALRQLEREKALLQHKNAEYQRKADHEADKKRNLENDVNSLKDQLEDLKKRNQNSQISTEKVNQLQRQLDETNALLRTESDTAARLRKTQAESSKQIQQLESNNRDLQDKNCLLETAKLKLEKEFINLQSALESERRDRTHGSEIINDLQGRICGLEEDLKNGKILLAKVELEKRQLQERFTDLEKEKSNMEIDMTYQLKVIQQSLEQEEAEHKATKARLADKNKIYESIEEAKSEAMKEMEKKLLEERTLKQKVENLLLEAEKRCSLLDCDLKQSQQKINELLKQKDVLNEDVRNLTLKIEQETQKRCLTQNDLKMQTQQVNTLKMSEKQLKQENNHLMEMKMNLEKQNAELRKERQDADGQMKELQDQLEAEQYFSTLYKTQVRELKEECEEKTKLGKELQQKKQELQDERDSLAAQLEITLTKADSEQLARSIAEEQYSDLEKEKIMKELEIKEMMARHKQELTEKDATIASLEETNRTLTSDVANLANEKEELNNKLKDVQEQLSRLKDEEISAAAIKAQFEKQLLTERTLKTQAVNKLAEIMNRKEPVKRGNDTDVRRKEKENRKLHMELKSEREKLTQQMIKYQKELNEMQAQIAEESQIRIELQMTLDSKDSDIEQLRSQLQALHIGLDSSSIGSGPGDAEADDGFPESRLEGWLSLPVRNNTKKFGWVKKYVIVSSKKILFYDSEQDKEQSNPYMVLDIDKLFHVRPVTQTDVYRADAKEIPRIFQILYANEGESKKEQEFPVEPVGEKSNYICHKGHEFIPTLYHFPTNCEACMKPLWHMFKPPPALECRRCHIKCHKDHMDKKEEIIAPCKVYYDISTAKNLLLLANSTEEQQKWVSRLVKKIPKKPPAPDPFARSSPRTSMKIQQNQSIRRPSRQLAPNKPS

Take `COc1cc(N2CCC3(CCN(C(=O)c4ccc(N5CCN(Cc6ccc(-c7ccccc7)cc6)CC5)cc4)CC3)C2=O)ccc1-c1cn[nH]c1` [Example 225, 8-{4-[4-({[1,1′-biphenyl]-4-yl}methyl)piperazin-1-yl]benzoyl}-2-[3-methoxy-4-(1H-pyrazol-4-yl)phenyl]-2,8-diazaspiro[4.5]decan-1-one]: the IC50 is 4.5 nM.

Regarding `COc1cc(N2CCC3(CCN(C(=O)c4ccc(CN5CCCC5)cc4)CC3)C2=O)ccc1-c1cn[nH]c1` [Example 168, 2-[3-methoxy-4-(1H-pyrazol-4-yl)phenyl]-8-{4-[(pyrrolidin-1-yl)methyl]benzoyl}-2,8-diazaspiro[4.5]decan-1-one], the IC50 amounted to 17 nM.

Compound `COc1cc(N2CCC3(CCN(C(=O)c4ccc5cnccc5c4)CC3)C2=O)ccc1-c1cn[nH]c1` [Example 166, 8-(isoquinoline-6-carbonyl)-2-[3-methoxy-4-(1H-pyrazol-4-yl)phenyl]-2,8-diazaspiro[4.5]decan-1-one] registered an IC50 of 33 nM. This IC50 lies about 1.9-fold higher than the previous one.

For the compound `COc1ccc(C(=O)N2CCC3(CC2)CCN(c2ccc(-c4cn[nH]c4)c(OC)c2)C3=O)c(Cl)c1` [Example 122, 8-(2-chloro-4-methoxybenzoyl)-2-[3-methoxy-4-(1H-pyrazol-4-yl)phenyl]-2,8-diazaspiro[4.5]decan-1-one], the IC50 is 11 nM.

For `COc1cc(N2CCC3(CCN(C(=O)c4ccc(N5CC(=O)NC5=O)cc4)CC3)C2=O)ccc1-c1cn[nH]c1` [Example 147, 1-(4-{2-[3-methoxy-4-(1H-pyrazol-4-yl)phenyl]-1-oxo-2,8-diazaspiro[4.5]decane-8-carbonyl}phenyl)imidazolidine-2,4-dione], 12 nM corresponded to half-maximal inhibition (IC50).

`COc1cc(N2CCC3(CCN(C(=O)c4ccc(N5CCN(CC6CCOC6)CC5)cc4)CC3)C2=O)ccc1-c1cn[nH]c1` (centres unmarked) [Example 246, 2-[3-methoxy-4-(1H-pyrazol-4-yl)phenyl]-8-(4-{4-[(oxolan-3-yl)methyl]piperazin-1-yl}benzoyl)-2,8-diazaspiro[4.5]decan-1-one] showed an IC50 of 0.7 nM.

Regarding `COc1ccc(C(=O)N2CCC3(CC2)CCN(c2ccc(-c4cn[nH]c4)c(OC)c2)C3=O)c(F)c1` [Example 17, 8-(2-Fluoro-4-methoxybenzoyl)-2-[3-methoxy-4-(1H-pyrazol-4-yl)phenyl]-2,8-diazaspiro[4.5]decan-1-one], the IC50 came to 8 nM. Against the preceding compound, the IC50 is about 11-fold higher.

As to `COc1cc(N2CCC3(CCN(C(=O)c4ccc(N5CCN(CCc6ccccc6)CC5)cc4)CC3)C2=O)ccc1-c1cn[nH]c1` [Example 239, 2-[3-methoxy-4-(1H-pyrazol-4-yl)phenyl]-8-{4-[4-(2-phenylethyl)piperazin-1-yl]benzoyl}-2,8-diazaspiro[4.5]decan-1-one], inhibition was half-maximal at 0.6 nM (IC50). This IC50 is about 13-fold lower than that of the compound before.

In turn, `COc1cc(N2CCC3(CCN(C(=O)c4ccco4)CC3)C2=O)ccc1-c1cn[nH]c1` [Example 63, 8-(furan-2-carbonyl)-2-[3-methoxy-4-(1H-pyrazol-4-yl)phenyl]-2,8-diazaspiro[4.5]decan-1-one] showed an IC50 of 1690 nM.

In turn, `COc1cc(N2CCC3(CCN(C(=O)c4cc5ccccc5o4)CC3)C2=O)ccc1-c1cn[nH]c1` [Example 70, 8-(1-benzofuran-2-carbonyl)-2-[3-methoxy-4-(1H-pyrazol-4-yl)phenyl]-2,8-diazaspiro[4.5]decan-1-one] gave an IC50 of 529 nM.

Turning to `COc1cc(N2CCC3(CCN(C(=O)c4ccc(N5CCCCC5=O)cc4)CC3)C2=O)ccc1-c1cn[nH]c1` [Example 142, 2-[3-methoxy-4-(1H-pyrazol-4-yl)phenyl]-8-[4-(2-oxopiperidin-1-yl)benzoyl]-2,8-diazaspiro[4.5]decan-1-one], half-maximal inhibition (IC50) required 8.8 nM.

`COc1cc(N2CCC3(CCN(C(=O)c4ccc(-c5nnc(C)o5)cc4)CC3)C2=O)ccc1-c1cn[nH]c1` [Example 162, 2-[3-methoxy-4-(1H-pyrazol-4-yl)phenyl]-8-[4-(5-methyl-1,3,4-oxadiazol-2-yl)benzoyl]-2,8-diazaspiro[4.5]decan-1-one] displayed an IC50 of 27 nM.

On to `COc1cc(N2CCC3(CCN(C(=O)c4cc(C)n5nc[nH]c(=O)c45)CC3)C2=O)ccc1-c1cn[nH]c1` [Example 132, 2-[3-methoxy-4-(1H-pyrazol-4-yl)phenyl]-8-{7-methyl-4-oxo-3H,4H-pyrrolo[2,1-f][1,2,4]triazine-5-carbonyl}-2,8-diazaspiro[4.5]decan-1-one], for which half-maximal inhibition (IC50) required 3 nM.

In turn, `COc1ccc(S(=O)(=O)N2CCC3(CCN(c4ccc(-c5cn[nH]c5)c(OC)c4)C3=O)CC2)cc1` [Example 206, 2-[3-methoxy-4-(1H-pyrazol-4-yl)phenyl]-8-(4-methoxybenzenesulfonyl)-2,8-diazaspiro[4.5]decan-1-one] showed an IC50 of 497 nM.

Turning to `COc1cc(N2CCC3(CCN(C(=O)c4ccc(-n5cccc5)cc4)CC3)C2=O)ccc1-c1cn[nH]c1` [Example 193, 2-[3-methoxy-4-(1H-pyrazol-4-yl)phenyl]-8-[4-(1H-pyrrol-1-yl)benzoyl]-2,8-diazaspiro[4.5]decan-1-one], the IC50 was 12 nM.

Take `COc1cc(N2CCC3(CCN(C(=O)c4ccc5c(c4)OCC(=O)N5)CC3)C2=O)ccc1-c1cn[nH]c1` [Example 157, 7-{2-[3-methoxy-4-(1H-pyrazol-4-yl)phenyl]-1-oxo-2,8-diazaspiro[4.5]decane-8-carbonyl}-3,4-dihydro-2H-1,4-benzoxazin-3-one]: the IC50 is 22 nM.

As for `COc1cc(N2CCC3(CCN(C(=O)c4ccsc4)CC3)C2=O)ccc1-c1cn[nH]c1` [Example 67, 2-[3-methoxy-4-(1H-pyrazol-4-yl)phenyl]-8-(thiophene-3-carbonyl)-2,8-diazaspiro[4.5]decan-1-one], the IC50 turned out to be 382 nM.

The compound `O=C(C1CC1)N1CCC2(CC1)CCN(c1ccc(-c3cn[nH]c3)cc1)C2=O` [Example 7, 8-cyclopropanecarbonyl-2-[4-(1H-pyrazol-4-yl)phenyl]-2,8-diazaspiro[4.5]decan-1-one] displayed an IC50 of 875 nM. This IC50 is about 2.3-fold higher than that of the compound before.

Take `O=C1N(c2ccc(-c3cn[nH]c3)cc2)CCC12CCN(S(=O)(=O)c1ccccc1)CC2` [Example 2, 8-(benzenesulfonyl)-2-[4-(1H-pyrazol-4-yl)phenyl]-2,8-diazaspiro[4.5]decan-1-one]: 330 nM corresponded to half-maximal inhibition (IC50).

`COc1ccc(C(=O)N2CCC3(CCN(c4ccc(-c5cn[nH]c5)cc4)C3=O)C2)cc1` (centres unmarked) [Example 45, 7-(4-methoxybenzoyl)-2-[4-(1H-pyrazol-4-yl)phenyl]-2,7-diazaspiro[4.4]nonan-1-one] registered an IC50 of 180 nM. Compared with the last compound, the IC50 is about 1.8-fold lower.

With `COc1cc(N2CCC3(CCN(C(=O)c4cccc5ccncc45)CC3)C2=O)ccc1-c1cn[nH]c1` [Example 203, 8-(isoquinoline-8-carbonyl)-2-[3-methoxy-4-(1H-pyrazol-4-yl)phenyl]-2,8-diazaspiro[4.5]decan-1-one], the IC50 turned out to be 326 nM.

On to `COc1cc(N2CCC3(CCN(C(=O)c4ccc(-n5cncn5)nc4)CC3)C2=O)ccc1-c1cn[nH]c1` [Example 145, 2-[3-methoxy-4-(1H-pyrazol-4-yl)phenyl]-8-[6-(1H-1,2,4-triazol-1-yl)pyridine-3-carbonyl]-2,8-diazaspiro[4.5]decan-1-one], for which half-maximal inhibition (IC50) required 54 nM.

`COc1cc(N2CCC3(CCN(C(=O)c4ccc(-c5nn[nH]n5)cc4)CC3)C2=O)ccc1-c1cn[nH]c1` [Example 143, 2-[3-methoxy-4-(1H-pyrazol-4-yl)phenyl]-8-[4-(2H-1,2,3,4-tetrazol-5-yl)benzoyl]-2,8-diazaspiro[4.5]decan-1-one] displayed an IC50 of 1020 nM. This IC50 is about 19-fold higher than that of the compound before.

A word on the IC50: it is the point on the concentration scale where inhibition reaches its midpoint.

The values above are taken from US11192891B2, “Diazaspiro ROCK inhibitors” (BRISTOL-MYERS SQUIBB COMPANY, priority 2017, dated 2021).
